Measured values as given in patent publication US10265317B2, “Combination of creatine, an omega-3 fatty acid, and citicoline” (University of Utah Research Foundation, priority 2014, dated 2019).

Key:
[1] = test system: females between 40-60 years of age; assay: Hamilton Anxiety Rating Scale (HAM-A), clinical study; assay type: in vivo, human; conditions: Visit 2, higher score indicates more severe symptoms
Protocol: (§1) Approval for the study was obtained from the University of Utah Institutional Review Board (IRB). Informed consent consisted of written assent from participants. The study was conducted under U.S. Food and Drug Administration (FDA) Investigational New Drug Application #104,586. An external Data Safety and Monitoring Board vested with authority to halt the trial was established, and the study was conducted in accordance of the principles of Good Clinical Practice (GCP).
(§2) Participants were recruited through self-referral and IRB-approved advertising. Consecutive patients who met inclusion criteria were enrolled. Inclusion criteria included the following: females between 40-60 years of age. […]
(§3) At each study visit, the following rating scales were administered: the Hamilton Anxiety Rating Scale (HAM A) (Hamilton, 1969) and the Hamilton Depression Rating Scale (HAM D) (Hamilton, 1960), the California Verbal Learning Test (Delis et al., 1987) and the Rey Osterrieth Figure Test (Bennett-Levy, 1984). Adverse events we recorded at each study visit. […]

[2] = test system: females between 40-60 years of age; assay: Hamilton Depression Rating Scale (HAM-D), clinical study; assay type: in vivo, human; conditions: Visit 2, higher score indicates more severe symptoms
Protocol: as §1, §2, §3

[3] = test system: frontal lobe levels of both phosphocreatine and adenosine triphosphate; conditions: chronic oral administration; cited from earlier work

With `C[N+](C)(C)CCOP(=O)(O)OP(=O)([O-])OC[C@H]1O[C@@H](n2ccc(N)nc2=O)[C@H](O)[C@@H]1O` [CDP-Choline, cytidine-5′-diphosphocholine] the “HAM-A Mean” value ([1]; 250 mg CDP-Choline) was 1.80, the “HAM-A Mean” value ([1]; 500 mg CDP-Choline) was 1.35 and the “HAM-D Mean” value ([2]; 250 mg CDP-Choline) was 1.60. The “HAM-D Mean” value ([2]; 500 mg CDP-Choline) was 1.35 and the “frontal lobe levels of phosphocreatine and adenosine triphosphate” value [3] was “increase”.
